Experimental data: patent US20090274676A1, “COMBINATION OF DEHYDROEPIANDROSTERONE OR DEHYDROEPIANDROSTERONE-SULFATE WITH A PDE-4 INHIBITOR FOR TREATMENT OF ASTHMA OR CHRONIC OBSTRUCTIVE PULMONARY DISEASE” (priority 2003, published 2009)
Where “and” joins values, the source holds several entries; their conditions need not be identical. Identical values can stand only once. Marks after values point to notes of the source that are not given here.

Legend:
Type in all cases: physicochemical
[1] = Particle size of jet-milled / spray-dried anhydrous DHEA-S (Malvern Mastersizer X, light microscope); conditions: for Mean particle size: spray dried, two batches
Method: Approximately 1 g sample was passed through the jet mill, once, and approximately 2 g sample were passed through the jet mill twice. […] The resulting solution was sonicated for 3 minutes and appeared fully dispersed. The dispersed solutions were tested on a Malvern Mastersizer X with a small volume sampler (SVS) attachment. One sample of dispersed material was tested 5 times. The median particle size or D (v, 0.5) of unmilled material was 52.56 μm and the % RSD (relative standard deviation) was 7.61 for the 5 values. The D (v, 0.5) for a single pass through the jet mill was 3.90 μm and the % RSD was 1.27, and the D (v, 0.5) from a double pass through the jet mill 3.25 μm and the % RSD was 3.10.
The solution was spray-dried with a B-191 Mini Spray-Drier (Buchi, Flawil, Switzerland) with an inlet temperature of 55° C., outlet temperature of 40° C., at 100% aspirator, at 10% pump, nitrogen flow at 40 mbar and spray flow at 600 units. The spray-dried product was suspended in hexane and Span85 surfactant added to reduce agglomeration. The dispersions were sonicated with cooling for 3-5 minutes for complete dispersion and the dispersed solutions tested on a Malvern Mastersizer X with a Small Volume Sampler (SVS) attachment. […] Visual examination by light microscope of the dispersions of each batch confirmed that spray drying produced small respirable size particles. The mean particle size was 2.4 μm and 2.0 μm for each batch, respectively.

[2] = Solid-state stability with and without lactose at 50° C. (HPLC, DHEA formation)
Source text: These conditions were used to stress the formulation in order to predict its long-term stability results. […] The primary degradant is DHEA. […] The materials on accelerated storage become more cohesive with time as evidenced by clumping during sample weighing for chemical analysis. […] This is a considerable disadvantage since lactose is the most commonly used inhalation excipient for dry powder formulations. Continuing with the virtually anhydrous form would mean limiting formulations to neat powder or undertaking more comprehensive safety studies to use a novel excipient.

[3] = Aerosolization of neat DHEA-S dihydrate, Acu-Breathe single-dose inhaler, fine particle fraction; conditions: 30 L/min, IDL data
Source text: The single-dose Acu-Breathe device is used for evaluating DHEA-S.dihydrate. […] These blisters are actuated into the Andersen 8-stage cascade impactor at flow rates ranging from 30 to 75 L/min with a glass twin-impinger throat. Stages 1-5 of the Andersen impactor are rinsed together to obtain an estimate of the fine particle fraction. Pooling the drug collected from multiple stages into one assay make the method much more sensitive. […] Using a carrier with a larger particle size typically improves the aerosol properties of micronized drug substances.

[4] = Respirable dose studies, Andersen cascade impactor; conditions: 90 L/min
Method: The respirable dose (respirable fraction) studies were performed using a standard sampler cascade impactor (Andersen), consisting of an inlet cone (an impactor pre-separator was substituted here), 9 stages, 8 collection plates, and a backup filter within 8 aluminum stages held together by 3 spring clamps and gasket O-ring seals, where each impactor stage contains multiple precision drilled orifices. When air is drawn through the sampler, multiple jets of air in each stage direct any airborne particles toward the surface of the collection plate for that stage. The size of the jets is constant for each stage, but is smaller in each succeeding stage. Whether a particle is impacted on any given stage depends upon its aerodynamic diameter. The range of particle sizes collected on each stage depends upon on the jet velocity of the stage, and the cut-off point of the previous stage. Any particle not collected on the first stage follows the air stream around the edge of the plate to the next stage, where it is either impacted or passed on to the succeeding stage, and so on, until the velocity of the jet is sufficient for impaction. To prevent particle bounce during the cascade impactor test, the individual impactor plates were coated with a hexane-grease (high vacuum) solution (100:1 ratio). As noted above, the particle size cut-off points on the impactor plates changed at different airflow rates. […] The set-up recommended by the United States Pharmacopeia for testing dry powder inhalers consists of a mouthpiece adapter (silicone in this case) attached to a glass throat (modified 50 ml round-bottom flask) and a glass distal pharynx (induction port) leading top the pre-separator and Andersen sampler. The pre-separator sample includes washings from the mouthpiece adaptor, glass throat, distal glass pharynx and pre-separator. 5 ml acetonitrile:water (1:1 ratio) solvent was placed in the pre-separator before performing the cascade impactor experiment, that were performed in duplicate with 3 different dry powder inhaler devices and at 3 airflow rates, 30, 60 and 90 L/min. The drug collected on the cascade impactor plates were assayed by the HPLC, and a drug mass balance was performed for each Diskhaler and multi-dose cascade impactor experiment consisting of determining the amount of drug left in the blister, the amount of drug remaining in the device (Diskhaler only), the non-respirable amount of the dose retained on the silicone rubber mouth piece adaptor, glass throat, glass distal pharynx and pre-separator, all combined into one sample, and the respirable dose, i.e. Stage 2 through filter impactor plates for airflow rates of 30 and 60 L/min and Stages 1 through filter impactor plates for 90 L/min experiments.
The cascade impactor experiments were conducted as described in Example 3. Four cascade impactor experiments were done, three with a IDL multi-dose device and one with a Diskhaler, all at 90 L/min. […] However, the % respirable dose was still low. This was likely the result of moisture absorption of the anhydrous form.

[5] = Multi-dose, oven dried drug for 80 minutes
[6] = Multi-dose, oven dried drug for 20 hours

C[C@]12CC[C@H](OS(=O)(=O)[O-])CC1=CC[C@@H]1[C@@H]2CC[C@]2(C)C(=O)CC[C@@H]12.[Na+] [Anhydrous DHEA-S]
Median particle size D (v, 0.5) ([1]; double pass through the jet mill): 3.25 μm | Median particle size D (v, 0.5) ([1]; single pass through the jet mill): 3.90 μm | Mean particle size ([1]; Malvern Mastersizer X): 5.07±0.70 μm and 6.66±0.91 μm | Mean particle size ([1]; visual examination by light microscope): 2.4 μm and 2.0 μm | Median particle size D (v, 0.5) ([1]; unmilled material): 52.56 μm | DHEA % formed ([2]; 50° C., 1 week): 9.817% | DHEA % formed ([2]; 50° C., 2 weeks): 14.954% | DHEA % formed ([2]; 50° C., 4 weeks): 20.171% | DHEA % formed ([2]; Control, initial (Time=0)): 2.774% | DHEA % formed ([2]; Control, sealed, 25° C., 1 week): 2.694% | DHEA % formed ([2]; Control, sealed, 25° C., 2 weeks): 2.370% | DHEA % formed ([2]; Control, sealed, 25° C., 4 weeks): 2.666% | Fine particle fraction (mass entering the impactor) [3]: no detectable mass entered the impactor | Respirable dose of spray-dried compared to micronized anhydrous DHEA-S [4]: two-fold increase | Blister (%) [4, 5]: 2.8% | Preseparator (%) [4, 5]: 78.7% | Respirable Dose (%) [4, 5]: 4.6% | Device (%) ([4]; Multi-dose, oven dried drug for 80 minutes, obtained by difference): 13.9*^a % | Blister (%) [4, 6]: 5.0% | Preseparator (%) [4, 6]: 55.9% | Respirable Dose (%) [4, 6]: 1.2% | Device (%) ([4]; Multi-dose, oven dried drug for 20 hours, obtained by difference): 37.9*^a % | Blister (%) ([4]; jet-milled drug, Diskhaler): 6.6% and 10.1% | Device (%) ([4]; jet-milled drug, Diskhaler): 22.1% and 13.3% | Preseparator (%) ([4]; jet-milled drug, Diskhaler): 72.7% and 60.2% | Respirable Dose (%) ([4]; jet-milled drug, Diskhaler): 2.9% and 2.4% | Blister (%) ([4]; jet-milled drug, Multi-dose): 3.8% and 3.9% | Preseparator (%) ([4]; jet-milled drug, Multi-dose): 73.3% and 65.8% | Respirable Dose (%) ([4]; jet-milled drug, Multi-dose): 3.6% and 3.8% | Device (%) ([4]; jet-milled drug, Multi-dose, obtained by difference): 19.3*^a % and 26.5*^a % | Blisters (%) ([4]; spray-dried drug, Diskhaler): 29.0% | Device (%) ([4]; spray-dried drug, Diskhaler): 11.2% | Preseparator (%) ([4]; spray-dried drug, Diskhaler): 56.8% | Respirable Dose (%) ([4]; spray-dried drug, Diskhaler): 5.6%
